Test results as given in patent US20240408099A1, “COMBINATION […] OF KRAS G12D INHIBITORS WITH Pan ErbB FAMILY INHIBITORS” (MIRATI THERAPEUTICS, INC., priority 2021, published 2024).

Experiments:
Type in all cases: in vivo, nude/nude mice
AsPC-1 cells [1] = test: AsPC-1 TGI-42 pancreatic cancer xenograft, tumor volumes
Description: (§1) Immunocompromised nude/nude mice are inoculated in the right hind flank with cells harboring a KRas G12D mutation. When tumor volumes reach between 200-400 mm^3 in size, the mice are divided into four to five groups of 5 mice each. The first group is administered vehicle only. […] The fourth or last groups are administered the single agent dose of the KRas G12D inhibitor using the twice daily schedule and/or the 2 sequential days followed by 5 days off schedule in combination with the single agent dose of one of the EGFR inhibitors. The treatment period varies from cell line to cell line but typically is between 15-40 days. Tumor volumes are measured using a caliper every two-three days and tumor volumes are calculated by the formula: […].
(§2) 20 to 30 nude/nude mice per study were inoculated in the right hind limb with 5×10^6 LS180 cells, AsPC-1 cells, GP2D cells, Panc 02.03 cells, SW1990 cells, or SNU-1033 cells.
Experimental Procedures. 30 nude/nude mice were inoculated with AsPC-1 cells in the right hind flank. When the tumors reached ˜300 mm^3 six treatment groups were established with five mice per group.

SW1990 cells = test: SW1990 TGI MDS #200407-807 pancreatic cancer xenograft, tumor volumes
Description: as §1, with “The treatment period varies from cell line to cell line but typically is between 15-40 days.” left out
as §2
Experimental Procedures. 30 nude/nude mice were inoculated with SW1990 cells in the right hind flank. When the tumors reached ˜300 mm^3 six treatment groups were established with five mice per group.

Panc 02.03 = Panc 02.03 TGI-43 pancreatic cancer xenograft (Table 5), tumor volumes; details: for tumor growth inhibition: single agent, Day 22
Description: as §1, with “The treatment period varies from cell line to cell line but typically is between 15-40 days.” left out
20 to 30 nude/nude mice per study were inoculated in the right hind limb with 5×10^6 LS180 cells, AsPC-1 cells, GP2D cells, Panc 02.03 cells, SW1990 cells, or SNU-1033 cells. […]

AsPC-1 cells [2] = test: AsPC-1 TGI 26 pancreatic cancer xenograft, tumor volumes; details: for Average Tumor Volumes: 30 mg/kg IP BID daily
Description: as §1, with “The treatment period varies from cell line to cell line but typically is between 15-40 days.” left out
Experimental Procedures. 20 nude/nude mice were inoculated with AsPC-1 cells in the right hind flank. When the tumors reached ˜200 mm^3 four treatment groups were established with five mice per group.

SNU-1033 cells = test: SNU-1033 TGI 46 colorectal cancer xenograft, tumor volumes; details: for Average Tumor Volumes: 30 mg/kg BID 2x/week
Description: as §1, with “The treatment period varies from cell line to cell line but typically is between 15-40 days.” left out
as §2
Experimental Procedures. 20 nude/nude mice were inoculated with SNU-1033 cells in the right hind flank. When the tumors reached ˜300 mm^3 four treatment groups were established with five mice per group.

[3] = 30 mg/kg BID 2x/week, Study Day 1
[4] = 30 mg/kg BID Daily, Study Day 6
[5] = 30 mg/kg BID Daily, Study Day 9
[6] = 30 mg/kg BID Daily, Study Day 13
[7] = 30 mg/kg BID Daily, Study Day 16
[8] = 30 mg/kg BID Daily, Study Day 20
[9] = 30 mg/kg BID Daily, Study Day 23

CN(C)C/C=C/C(=O)Nc1cc2c(Nc3ccc(F)c(Cl)c3)ncnc2cc1OC1CCOC1 (centres unmarked) [Afatinib, (E)-N-(4-((3-chloro-4-fluorophenyl)amino)-7-((tetrahydrofuran-3-yl)oxy)quinazolin-6-yl)-4-(dimethylamino)but-2-enamide, reference compound]
tumor growth inhibition (AsPC-1 cells [1]; 12.5 mg/kg QD, single agent, Day 34): 11% | Average Tumor Volumes (AsPC-1 cells [1]; 12.5 mg/kg QD, Study Day 1): 328.208 mm^3 | Average Tumor Volumes (AsPC-1 cells [1]; 12.5 mg/kg QD, Study Day 6): 463.11 mm^3 | Average Tumor Volumes (AsPC-1 cells [1]; 12.5 mg/kg QD, Study Day 9): 641.776 mm^3 | Average Tumor Volumes (AsPC-1 cells [1]; 12.5 mg/kg QD, Study Day 13): 720.894 mm^3 | Average Tumor Volumes (AsPC-1 cells [1]; 12.5 mg/kg QD, Study Day 16): 768.716 mm^3 | Average Tumor Volumes (AsPC-1 cells [1]; 12.5 mg/kg QD, Study Day 20): 964.434 mm^3 | Average Tumor Volumes (AsPC-1 cells [1]; 12.5 mg/kg QD, Study Day 23): 1002.602 mm^3 | Average Tumor Volumes (AsPC-1 cells [1]; 12.5 mg/kg QD, Study Day 27): 1211.064 mm^3 | Average Tumor Volumes (AsPC-1 cells [1]; 12.5 mg/kg QD, Study Day 30): 1289.494 mm^3 | Average Tumor Volumes (AsPC-1 cells [1]; 12.5 mg/kg QD, Study Day 34): 1252.045 mm^3 | tumor growth inhibition (SW1990 cells; 12.5 mg/kg QD daily, single agent, Day 23): 20% | Average Tumor Volumes (SW1990 cells; 12.5 mg/kg QD once daily, Study Day 2): 455.54 mm^3 | Average Tumor Volumes (SW1990 cells; 12.5 mg/kg QD once daily, Study Day 6): 536.86 mm^3 | Average Tumor Volumes (SW1990 cells; 12.5 mg/kg QD once daily, Study Day 9): 624.98 mm^3 | Average Tumor Volumes (SW1990 cells; 12.5 mg/kg QD once daily, Study Day 13): 698.56 mm^3 | Average Tumor Volumes (SW1990 cells; 12.5 mg/kg QD once daily, Study Day 16): 778.74 mm^3 | Average Tumor Volumes (SW1990 cells; 12.5 mg/kg QD once daily, Study Day 20): 1141.575 mm^3 | Average Tumor Volumes (SW1990 cells; 12.5 mg/kg QD once daily, Study Day 23): 1293.5 mm^3 | Average Tumor Volumes (SW1990 cells; 12.5 mg/kg QD once daily, Study Day −1): 363.4 mm^3 | Average Tumor Volumes (Panc 02.03; 12.5 mg/kg QD (once daily), Study Day 1): 331.548 mm^3 | Average Tumor Volumes (Panc 02.03; 12.5 mg/kg QD (once daily), Study Day 4): 361.83 mm^3 | Average Tumor Volumes (Panc 02.03; 12.5 mg/kg QD (once daily), Study Day 8): 398.444 mm^3 | Average Tumor Volumes (Panc 02.03; 12.5 mg/kg QD (once daily), Study Day 11): 470.498 mm^3 | Average Tumor Volumes (Panc 02.03; 12.5 mg/kg QD (once daily), Study Day 15): 660.352 mm^3 | Average Tumor Volumes (Panc 02.03; 12.5 mg/kg QD (once daily), Study Day 18): 784.04 mm^3 | Average Tumor Volumes (Panc 02.03; 12.5 mg/kg QD (once daily), Study Day 22): 904.724 mm^3 | tumor growth inhibition (Panc 02.03; 12.5 mg/kg daily): 27%

C#Cc1c(F)ccc2cc(O)cc(-c3ncc4c(N5C[C@H]6CC[C@@H](C5)N6)nc(OC[C@@]56CCCN5C[C@H](F)C6)nc4c3F)c12 [MRTX1133, 4-(4-((1R,5S)-3,8-diazabicyclo[3.2.1]octan-3-yl)-8-fluoro-2-(((2R,7aS)-2-fluorohexahydro-1H-pyrrolizin-7a-yl)methoxy)pyrido[4,3-d]pyrimidin-7-yl)-5-ethynyl-6-fluoronaphthalen-2-ol]
Average Tumor Volumes (AsPC-1 cells [1]; [3]): 325.894 mm^3 | Average Tumor Volumes (AsPC-1 cells [1]; 30 mg/kg BID 2x/week, Study Day 6): 394.182 mm^3 | Average Tumor Volumes (AsPC-1 cells [1]; 30 mg/kg BID 2x/week, Study Day 9): 472.586 mm^3 | Average Tumor Volumes (AsPC-1 cells [1]; 30 mg/kg BID 2x/week, Study Day 13): 496.598 mm^3 | Average Tumor Volumes (AsPC-1 cells [1]; 30 mg/kg BID 2x/week, Study Day 16): 554.052 mm^3 | Average Tumor Volumes (AsPC-1 cells [1]; 30 mg/kg BID 2x/week, Study Day 20): 586.5625 mm^3 | Average Tumor Volumes (AsPC-1 cells [1]; 30 mg/kg BID 2x/week, Study Day 23): 640.49 mm^3 | Average Tumor Volumes (AsPC-1 cells [1]; 30 mg/kg BID 2x/week, Study Day 27): 679.96 mm^3 | Average Tumor Volumes (AsPC-1 cells [1]; 30 mg/kg BID 2x/week, Study Day 30): 795.11 mm^3 | Average Tumor Volumes (AsPC-1 cells [1]; 30 mg/kg BID 2x/week, Study Day 34): 862.74 mm^3 | Average Tumor Volumes (AsPC-1 cells [1]; 30 mg/kg BID Daily, Study Day 1): 323.454 mm^3 | Average Tumor Volumes (AsPC-1 cells [1]; [4]): 356.398 mm^3 | Average Tumor Volumes (AsPC-1 cells [1]; [5]): 374.684 mm^3 | Average Tumor Volumes (AsPC-1 cells [1]; [6]): 316.51 mm^3 | Average Tumor Volumes (AsPC-1 cells [1]; [7]): 291.71 mm^3 | Average Tumor Volumes (AsPC-1 cells [1]; [8]): 269.246 mm^3 | Average Tumor Volumes (AsPC-1 cells [1]; [9]): 213.334 mm^3 | Average Tumor Volumes (AsPC-1 cells [1]; 30 mg/kg BID Daily, Study Day 27): 195.354 mm^3 | Average Tumor Volumes (AsPC-1 cells [1]; 30 mg/kg BID Daily, Study Day 30): 216.072 mm^3 | Average Tumor Volumes (AsPC-1 cells [1]; 30 mg/kg BID Daily, Study Day 34): 266.324 mm^3 | tumor regression (AsPC-1 cells [1]; 30 mg/kg BID daily, single agent, Day 34): −9% | Average Tumor Volumes (AsPC-1 cells [2]; Study Day 0): 197.468 mm^3 | Average Tumor Volumes (AsPC-1 cells [2]; Study Day 4): 194.514 mm^3 | Average Tumor Volumes (AsPC-1 cells [2]; Study Day 7): 175.198 mm^3 | Average Tumor Volumes (AsPC-1 cells [2]; Study Day 11): 159.756 mm^3 | Average Tumor Volumes (AsPC-1 cells [2]; Study Day 14): 172.986 mm^3 | Average Tumor Volumes (AsPC-1 cells [2]; Study Day 18): 168.412 mm^3 | Average Tumor Volumes (AsPC-1 cells [2]; Study Day 21): 143.928 mm^3 | Average Tumor Volumes (AsPC-1 cells [2]; Study Day 25): 149.308 mm^3 | tumor regression (AsPC-1 cells [2]; 30 mg/kg twice daily, single agent, Day 25): −24% | Average Tumor Volumes (SW1990 cells; 30 mg/kg BID Daily, Study Day 2): 265.08 mm^3 | Average Tumor Volumes (SW1990 cells; [4]): 194.42 mm^3 | Average Tumor Volumes (SW1990 cells; [5]): 187.24 mm^3 | Average Tumor Volumes (SW1990 cells; [6]): 241.84 mm^3 | Average Tumor Volumes (SW1990 cells; [7]): 235.32 mm^3 | Average Tumor Volumes (SW1990 cells; [8]): 214.98 mm^3 | Average Tumor Volumes (SW1990 cells; [9]): 195.04 mm^3 | Average Tumor Volumes (SW1990 cells; 30 mg/kg BID Daily, Study Day −1): 362.82 mm^3 | tumor regression (SW1990 cells; 30 mg/kg BID daily, single agent, Day 23): −46% | Average Tumor Volumes (Panc 02.03; [3]): 329.18 mm^3 | Average Tumor Volumes (Panc 02.03; 30 mg/kg BID 2x/week, Study Day 4): 265.246 mm^3 | Average Tumor Volumes (Panc 02.03; 30 mg/kg BID 2x/week, Study Day 8): 386.354 mm^3 | Average Tumor Volumes (Panc 02.03; 30 mg/kg BID 2x/week, Study Day 11): 392.042 mm^3 | Average Tumor Volumes (Panc 02.03; 30 mg/kg BID 2x/week, Study Day 15): 480.434 mm^3 | Average Tumor Volumes (Panc 02.03; 30 mg/kg BID 2x/week, Study Day 18): 496.496 mm^3 | Average Tumor Volumes (Panc 02.03; 30 mg/kg BID 2x/week, Study Day 22): 549.618 mm^3 | tumor growth inhibition (Panc 02.03; 30 mg/kg BID (twice per week)): 72% | Average Tumor Volumes (SNU-1033 cells; Study Day 1): 298.92 mm^3 | Average Tumor Volumes (SNU-1033 cells; Study Day 5): 336.336 mm^3 | Average Tumor Volumes (SNU-1033 cells; Study Day 8): 431.99 mm^3 | Average Tumor Volumes (SNU-1033 cells; Study Day 12): 468.892 mm^3 | Average Tumor Volumes (SNU-1033 cells; Study Day 15): 529.222 mm^3 | Average Tumor Volumes (SNU-1033 cells; Study Day 19): 643.516 mm^3 | Average Tumor Volumes (SNU-1033 cells; Study Day 22): 703.368 mm^3 | Average Tumor Volumes (SNU-1033 cells; Study Day 26): 802.69 mm^3 | Average Tumor Volumes (SNU-1033 cells; Study Day 29): 838.708 mm^3 | Average Tumor Volumes (SNU-1033 cells; Study Day 33): 895.918 mm^3 | tumor growth inhibition (SNU-1033 cells; 30 mg/kg twice per week, single agent, Day 33): 47%
